Target: T1, Nav1.7 (or SCN9A) channel; HEK cells stably transfected with hSCN9A (Homo sapiens, UniProt Q15858)
T1 construct: expressed in transfected cells
Assay: Nav1.7 block, PatchXpress 7000 automated whole-cell voltage clamp, estimated IC50 (EIC50)
Type: cell-based
Conditions: estimated IC50; hSCN9A HEK cells, PatchXpress platform; Examples 283-814

T1 sequence (Q15858 whole entry): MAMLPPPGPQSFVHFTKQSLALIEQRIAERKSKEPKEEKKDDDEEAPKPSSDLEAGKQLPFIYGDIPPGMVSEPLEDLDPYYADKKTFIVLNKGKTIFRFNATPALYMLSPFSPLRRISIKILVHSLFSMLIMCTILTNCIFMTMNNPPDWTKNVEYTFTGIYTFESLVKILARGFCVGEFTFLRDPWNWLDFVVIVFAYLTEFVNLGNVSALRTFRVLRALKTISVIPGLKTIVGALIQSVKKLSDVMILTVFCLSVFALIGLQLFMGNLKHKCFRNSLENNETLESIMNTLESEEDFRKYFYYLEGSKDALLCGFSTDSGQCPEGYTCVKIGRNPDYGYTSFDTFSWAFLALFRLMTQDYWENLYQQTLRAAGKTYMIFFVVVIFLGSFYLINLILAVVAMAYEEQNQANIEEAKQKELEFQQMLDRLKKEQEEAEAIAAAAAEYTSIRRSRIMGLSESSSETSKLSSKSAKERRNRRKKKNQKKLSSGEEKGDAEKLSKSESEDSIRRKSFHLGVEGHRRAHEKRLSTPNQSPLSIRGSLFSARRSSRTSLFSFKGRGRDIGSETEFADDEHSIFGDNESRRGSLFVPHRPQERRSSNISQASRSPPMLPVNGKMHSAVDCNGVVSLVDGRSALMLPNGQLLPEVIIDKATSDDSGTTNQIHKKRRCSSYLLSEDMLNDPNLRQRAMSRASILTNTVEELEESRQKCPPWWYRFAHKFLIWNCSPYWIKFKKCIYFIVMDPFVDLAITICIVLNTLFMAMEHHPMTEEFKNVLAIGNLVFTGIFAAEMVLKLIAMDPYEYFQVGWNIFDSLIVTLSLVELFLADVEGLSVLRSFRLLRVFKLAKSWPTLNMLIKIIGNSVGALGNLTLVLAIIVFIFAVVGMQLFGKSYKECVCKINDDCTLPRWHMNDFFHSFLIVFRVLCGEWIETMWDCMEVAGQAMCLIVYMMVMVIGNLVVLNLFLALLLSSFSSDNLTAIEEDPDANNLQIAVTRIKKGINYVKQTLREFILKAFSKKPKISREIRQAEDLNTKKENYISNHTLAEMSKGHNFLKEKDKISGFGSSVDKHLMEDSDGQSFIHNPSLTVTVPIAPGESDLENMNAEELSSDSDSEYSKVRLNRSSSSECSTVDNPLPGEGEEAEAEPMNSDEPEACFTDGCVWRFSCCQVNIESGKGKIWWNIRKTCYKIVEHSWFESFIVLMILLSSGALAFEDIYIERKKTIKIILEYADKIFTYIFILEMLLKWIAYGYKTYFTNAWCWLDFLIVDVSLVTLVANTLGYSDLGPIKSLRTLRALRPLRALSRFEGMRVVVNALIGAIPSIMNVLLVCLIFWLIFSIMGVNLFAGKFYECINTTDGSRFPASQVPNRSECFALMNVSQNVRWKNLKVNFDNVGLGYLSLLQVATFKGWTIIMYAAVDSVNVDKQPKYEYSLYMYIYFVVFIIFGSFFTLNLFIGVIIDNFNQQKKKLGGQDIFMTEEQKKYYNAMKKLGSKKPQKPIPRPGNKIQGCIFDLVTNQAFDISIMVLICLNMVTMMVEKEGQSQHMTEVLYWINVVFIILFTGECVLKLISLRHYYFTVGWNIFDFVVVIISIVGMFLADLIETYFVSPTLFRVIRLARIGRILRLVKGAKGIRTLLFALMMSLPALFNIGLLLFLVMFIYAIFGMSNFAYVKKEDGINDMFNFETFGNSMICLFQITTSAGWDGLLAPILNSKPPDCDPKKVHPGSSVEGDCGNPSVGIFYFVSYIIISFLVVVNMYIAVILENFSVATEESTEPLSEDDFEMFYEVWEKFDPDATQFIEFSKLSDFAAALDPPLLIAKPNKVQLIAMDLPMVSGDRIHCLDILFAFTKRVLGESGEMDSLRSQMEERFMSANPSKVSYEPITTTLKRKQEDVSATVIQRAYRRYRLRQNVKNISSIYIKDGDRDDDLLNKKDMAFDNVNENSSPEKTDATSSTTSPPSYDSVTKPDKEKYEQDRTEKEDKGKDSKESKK

| IC50 [nM] | Structure (SMILES) |
| --- | --- |
| 77 | N#Cc1cc(S(=O)(=O)Nc2ncns2)ccc1Oc1ccc(Cl)cc1-c1ccnn1C(F)F [Example 510, 4-{4-chloro-2-[1-(difluoromethyl)-1H-pyrazol-5-yl]phenoxy}-3-cyano-N-1,2,4-thiadiazol-5-ylbenzenesulfonamide] |
| 160 | Cn1nccc1-c1cc(F)c(F)cc1Oc1ccc(S(=O)(=O)Nc2nccs2)cc1C#N [Example 526, 3-cyano-4-[4,5-difluoro-2-(1-methyl-1H-pyrazol-5-yl)phenoxy]-N-1,3-thiazol-2-ylbenzenesulfonamide] |
| 230 | N#Cc1cc(S(=O)(=O)Nc2ncc(F)s2)ccc1Oc1ccc(Cl)c(Cn2ccnc2)c1 [Example 530, 4-[4-chloro-3-(1H-imidazol-1-ylmethyl)phenoxy]-3-cyano-N-(5-fluoro-1,3-thiazol-2-yl)benzenesulfonamide] |
| 1100 | COc1cccc(-c2cc(Oc3ccc(S(=O)(=O)Nc4ncc(F)s4)cc3C#N)ccc2Cl)c1 [Example 531, 4-[(6-chloro-3′-methoxybiphenyl-3-yl)oxy]-3-cyano-N-(5-fluoro-1,3-thiazol-2-yl)benzenesulfonamide] |
| 2900 | COCc1cccc(-c2cc(Oc3ccc(S(=O)(=O)Nc4ncc(F)s4)cc3C#N)ccc2Cl)c1 [Example 532, 4-{[6-chloro-3′-(methoxymethyl)biphenyl-3-yl]oxy}-3-cyano-N-(5-fluoro-1,3-thiazol-2-yl)benzenesulfonamide] |
| 780 | N#Cc1cc(S(=O)(=O)Nc2ncc(F)s2)ccc1Oc1ccc(Cl)c(Cn2ccnn2)c1 [Example 533, 4-[4-chloro-3-(1H-1,2,3-triazol-1-ylmethyl)phenoxy]-3-cyano-N-(5-fluoro-1,3-thiazol-2-yl)benzenesulfonamide] |
| 500 | N#Cc1cc(S(=O)(=O)Nc2ncc(F)s2)ccc1Oc1ccc(Cl)c(Cn2cccn2)c1 [Example 534, 4-[4-chloro-3-(1H-pyrazol-1-ylmethyl)phenoxy]-3-cyano-N-(5-fluoro-1,3-thiazol-2-yl)benzenesulfonamide] |
| 170 | Cn1nc(C(F)(F)F)cc1-c1ccc(Oc2ccc(S(=O)(=O)Nc3ncc(F)s3)cc2C#N)c(F)c1 [Example 535, 3-cyano-4-{2-fluoro-4-[1-methyl-3-(trifluoromethyl)-1H-pyrazol-5-yl]phenoxy}-N-(5-fluoro-1,3-thiazol-2-yl)benzenesulfonamide] |
| 220 | CCn1nc(C(F)(F)F)cc1-c1ccc(Oc2ccc(S(=O)(=O)Nc3ncc(F)s3)cc2C#N)cc1F [Example 536, 3-cyano-4-{4-[1-ethyl-3-(trifluoromethyl)-1H-pyrazol-5-yl]-3-fluorophenoxy}-N-(5-fluoro-1,3-thiazol-2-yl)benzenesulfonamide] |
| 25 | CCn1nc(C(F)(F)F)cc1-c1ccc(Oc2ccc(S(=O)(=O)Nc3ncc(F)s3)cc2C#N)c(F)c1 [Example 537, 3-cyano-4-{4-[1-ethyl-3-(trifluoromethyl)-1H-pyrazol-5-yl]-2-fluorophenoxy}-N-(5-fluoro-1,3-thiazol-2-yl)benzenesulfonamide] |
| 3400 | Cn1nccc1-c1ccc(Oc2ccc(S(=O)(=O)Nc3ncc(F)s3)cc2C#N)c(C#N)c1 [Example 538, 3-cyano-4-[2-cyano-4-(1-methyl-1H-pyrazol-5-yl)phenoxy]-N-(5-fluoro-1,3-thiazol-2-yl)benzenesulfonamide] |
| 4000 | CCn1nc(-c2ccc(Oc3ccc(S(=O)(=O)Nc4ncc(F)s4)cc3C#N)c(F)c2)cc1C(F)(F)F [Example 540, 3-cyano-4-{4-[1-ethyl-5-(trifluoromethyl)-1H-pyrazol-3-yl]-2-fluorophenoxy}-N-(5-fluoro-1,3-thiazol-2-yl)benzenesulfonamide] |
| 140 | COc1ccc(-c2ccnn2C)c(Oc2ccc(S(=O)(=O)Nc3nccs3)cc2C#N)c1 [Example 541, 3-cyano-4-[5-methoxy-2-(1-methyl-1H-pyrazol-5-yl)phenoxy]-N-1,3-thiazol-2-ylbenzenesulfonamide] |
| 66 | Cn1nccc1-c1ccc(F)cc1Oc1ccc(S(=O)(=O)Nc2nccs2)cc1C#N [Example 542, 3-cyano-4-[5-fluoro-2-(1-methyl-1H-pyrazol-5-yl)phenoxy]-N-1,3-thiazol-2-ylbenzenesulfonamide] |
| 22 | Cn1nccc1-c1ccc(Cl)cc1Oc1ccc(S(=O)(=O)Nc2nccs2)cc1C#N [Example 544, 4-[5-chloro-2-(1-methyl-1H-pyrazol-5-yl)phenoxy]-3-cyano-N-1,3-thiazol-2-ylbenzenesulfonamide] |
| 120 | CCn1nc(C(F)(F)F)cc1-c1cccc(Oc2ccc(S(=O)(=O)Nc3nccs3)cc2C#N)c1 [Example 547, 3-cyano-4-{3-[1-ethyl-3-(trifluoromethyl)-1H-pyrazol-5-yl]phenoxy}-N-1,3-thiazol-2-ylbenzenesulfonamide] |

The remaining lines, values behind:

| Structure (SMILES) | IC50 [nM] |
| --- | --- |
| N#Cc1cccc(-c2cc(C(F)(F)F)ccc2Oc2ccc(S(=O)(=O)Nc3ncns3)cc2C#N)c1 [Example 509, 3-cyano-4-{[3′-cyano-5-(trifluoromethyl)biphenyl-2-yl]oxy}-N-1,2,4-thiadiazol-5-ylbenzenesulfonamide] | 31 |
| N#Cc1cc(S(=O)(=O)Nc2ncns2)ccc1Oc1ccc(Cl)cc1-c1cccc(CN)c1 [Example 511, 4-{[3′-(aminomethyl)-5-chlorobiphenyl-2-yl]oxy}-3-cyano-N-1,2,4-thiadiazol-5-ylbenzenesulfonamide] | 8.4 |
| N#Cc1cc(S(=O)(=O)Nc2ncc(Br)s2)ccc1Oc1c(Br)cc(Br)cc1-c1ccccc1 [Example 512, N-(5-Bromo-1,3-thiazol-2-yl)-3-cyano-4-[(3,5-dibromobiphenyl-2-yl)oxy]benzenesulfonamide] | 3400 |
| Cn1nccc1-c1cc(Cl)ccc1Oc1ccc(S(=O)(=O)Nc2ccc(F)cn2)cc1F [Example 514, 4-[4-chloro-2-(1-methyl-1H-pyrazol-5-yl)phenoxy]-3-fluoro-N-(5-fluoropyridin-2-yl)benzenesulfonamide] | 1100 |
| Cc1nsc(NS(=O)(=O)c2ccc(Oc3ccc(Cl)cc3-c3ccnn3C)c(F)c2)n1 [Example 515, 4-[4-chloro-2-(1-methyl-1H-pyrazol-5-yl)phenoxy]-3-fluoro-N-(3-methyl-1,2,4-thiadiazol-5-yl)benzenesulfonamide] | 1900 |
| O=S(=O)(Nc1cscn1)c1cc(Cl)c(Oc2ccc(F)cc2-c2ccnn2CCO)cc1F [Example 517, 5-chloro-2-fluoro-4-{4-fluoro-2-[1-(2-hydroxyethyl)-1H-pyrazol-5-yl]phenoxy}-N-1,3-thiazol-4-ylbenzenesulfonamide] | 2200 |
| O=S(=O)(Nc1cscn1)c1cc(Cl)c(Oc2cc(C(F)(F)F)ccc2-c2cncnc2)cc1F [Example 518, 5-chloro-2-fluoro-4-[2-pyrimidin-5-yl-5-(trifluoromethyl)phenoxy]-N-1,3-thiazol-4-ylbenzenesulfonamide] | >1000 |
| CC(C)(C)n1nccc1-c1cc(F)ccc1Oc1cc(F)c(S(=O)(=O)Nc2cscn2)cc1Cl [Example 519, 4-[2-(1-tert-butyl-1H-pyrazol-5-yl)-4-fluorophenoxy]-5-chloro-2-fluoro-N-1,3-thiazol-4-ylbenzenesulfonamide] | 1200 |
| CC(C)(C)n1ccc(-c2cc(F)ccc2Oc2cc(F)c(S(=O)(=O)Nc3cscn3)cc2Cl)n1 [Example 520, 4-[2-(1-tert-butyl-1H-pyrazol-3-yl)-4-fluorophenoxy]-5-chloro-2-fluoro-N-1,3-thiazol-4-ylbenzenesulfonamide] | >1000 |
| O=S(=O)(Nc1cscn1)c1cc(Cl)c(Oc2ccc(F)cc2-c2c[nH]nn2)cc1F [Example 521, 5-chloro-2-fluoro-4-[4-fluoro-2-(1H-1,2,3-triazol-4-yl)phenoxy]-N-1,3-thiazol-4-ylbenzenesulfonamide] | 2900 |
| Cn1ccc(-c2cc(F)ccc2Oc2cc(F)c(S(=O)(=O)Nc3cscn3)cc2Cl)n1 [Example 522, 5-chloro-2-fluoro-4-[4-fluoro-2-(1-methyl-1H-pyrazol-3-yl)phenoxy]-N-1,3-thiazol-4-ylbenzenesulfonamide] | 7300 |
| Cn1nncc1-c1cc(F)ccc1Oc1cc(F)c(S(=O)(=O)Nc2cscn2)cc1Cl [Example 523, 5-chloro-2-fluoro-4-[4-fluoro-2-(1-methyl-1H-1,2,3-triazol-5-yl)phenoxy]-N-1,3-thiazol-4-ylbenzenesulfonamide] | 2600 |
| Cn1nc(C(F)(F)F)cc1-c1ccc(Oc2cc(F)c(S(=O)(=O)Nc3cscn3)cc2Cl)c(C#N)c1 [Example 524, 5-chloro-4-{2-cyano-4-[1-methyl-3-(trifluoromethyl)-1H-pyrazol-5-yl]phenoxy}-2-fluoro-N-1,3-thiazol-4-ylbenzenesulfonamide] | 580 |
| Cn1nc(C(F)(F)F)cc1-c1cccc(Oc2ccc(S(=O)(=O)Nc3nccs3)cc2C#N)c1F [Example 527, 3-cyano-4-{2-fluoro-3-[1-methyl-3-(trifluoromethyl)-1H-pyrazol-5-yl]phenoxy}-N-1,3-thiazol-2-ylbenzenesulfonamide] | 140 |
| Cn1nccc1-c1cc(F)ccc1Oc1ccc(S(=O)(=O)Nc2ccncn2)cc1F [Example 528, 3-fluoro-4-[4-fluoro-2-(1-methyl-1H-pyrazol-5-yl)phenoxy]-N-pyrimidin-4-ylbenzenesulfonamide] | 740 |
| Cc1ccc(-c2ccnn2C)c(Oc2ccc(S(=O)(=O)Nc3nccs3)cc2C#N)c1 [Example 543, 3-cyano-4-[5-methyl-2-(1-methyl-1H-pyrazol-5-yl)phenoxy]-N-1,3-thiazol-2-ylbenzenesulfonamide] | 66 |
| Cn1nccc1-c1cc(C2CC2)ccc1Oc1ccc(S(=O)(=O)Nc2nccs2)cc1C#N [Example 545, 3-cyano-4-[4-cyclopropyl-2-(1-methyl-1H-pyrazol-5-yl)phenoxy]-N-1,3-thiazol-2-ylbenzenesulfonamide] | 23 |
| Cc1[nH]ncc1-c1cc(Cl)ccc1Oc1ccc(S(=O)(=O)Nc2nccs2)cc1C#N [Example 546, 4-[4-chloro-2-(5-methyl-1H-pyrazol-4-yl)phenoxy]-3-cyano-N-1,3-thiazol-2-ylbenzenesulfonamide] | 20 |
